ChEMBL document CHEMBL5346920, “Development of the "hidden" multi-target-directed ligands by AChE/BuChE for the treatment of Alzheimer's disease” (Eur J Med Chem, 2023)
Active and inactive are the calls of the source. The rule behind the calls is not given here.

Key:
[1] = target: T1, Amine oxidase [flavin-containing] A (Homo sapiens, UniProt P21397); assay: Inhibition of human recombinant MAO-A expressed in baculovirus-infected BTI cells using kynuramine as substrate at 62.5 uM incubated for 30 mins by fluorescence based analysis; conditions: 0.5 h
T1 sequence (P21397 whole entry): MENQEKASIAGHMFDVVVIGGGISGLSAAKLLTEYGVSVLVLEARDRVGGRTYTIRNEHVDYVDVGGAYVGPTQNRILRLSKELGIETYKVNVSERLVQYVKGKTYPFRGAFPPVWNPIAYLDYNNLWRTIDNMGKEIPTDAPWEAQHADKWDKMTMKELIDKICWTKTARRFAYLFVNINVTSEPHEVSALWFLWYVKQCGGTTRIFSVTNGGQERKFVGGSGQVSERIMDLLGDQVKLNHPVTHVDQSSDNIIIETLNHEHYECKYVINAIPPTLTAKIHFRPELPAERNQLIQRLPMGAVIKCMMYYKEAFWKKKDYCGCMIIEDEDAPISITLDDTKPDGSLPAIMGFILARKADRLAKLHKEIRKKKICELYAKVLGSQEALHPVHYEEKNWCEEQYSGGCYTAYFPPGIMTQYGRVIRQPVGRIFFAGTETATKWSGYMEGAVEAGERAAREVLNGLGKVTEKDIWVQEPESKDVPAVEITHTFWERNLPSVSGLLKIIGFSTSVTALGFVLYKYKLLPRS

[2] = target: T2, Amine oxidase [flavin-containing] B (Homo sapiens, UniProt P27338); assay: Inhibition of human recombinant MAO-B expressed in baculovirus-infected BTI cells using kynuramine as substrate incubated for 30 mins by fluorescence based analysis
T2 sequence (P27338 whole entry): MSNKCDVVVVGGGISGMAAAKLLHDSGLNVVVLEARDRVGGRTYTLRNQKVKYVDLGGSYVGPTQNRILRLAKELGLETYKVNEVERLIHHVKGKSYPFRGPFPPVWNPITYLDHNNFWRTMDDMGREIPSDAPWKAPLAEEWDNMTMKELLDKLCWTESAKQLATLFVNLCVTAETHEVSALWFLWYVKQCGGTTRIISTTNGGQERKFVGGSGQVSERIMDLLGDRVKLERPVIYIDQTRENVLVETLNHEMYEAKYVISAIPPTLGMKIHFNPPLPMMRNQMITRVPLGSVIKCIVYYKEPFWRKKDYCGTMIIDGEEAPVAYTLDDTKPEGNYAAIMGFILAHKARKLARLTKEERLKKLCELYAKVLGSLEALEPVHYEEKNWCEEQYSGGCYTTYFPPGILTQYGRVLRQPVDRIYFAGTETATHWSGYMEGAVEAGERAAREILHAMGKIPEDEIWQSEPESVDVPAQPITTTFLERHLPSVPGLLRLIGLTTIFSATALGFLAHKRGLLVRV

[3] = target: T1, Amine oxidase [flavin-containing] A; assay: Inhibition of human recombinant MAO-A expressed in baculovirus-infected BTI cells using kynuramine as substrate incubated for 30 mins by fluorescence based analysis
[4] = species on record: Homo sapiens; assay: Selectivity index, ratio of IC50 for inhibition of human recombinant MAO-A expressed in baculovirus-infected BTI cells to IC50 for inhibition of human recombinant MAO-B expressed in baculovirus-infected BTI cells
[5] = test system: PC-12; assay: Neuroprotective activity against Amyloid beta(25 to 35)-induced cell injury in rat PC12 cells assessed as increase in cell viability pretreated for 2 hrs followed by incubation with Abeta(25 to 35) for 24 hrs by CCK-8 assay; assay type: functional, cell-based; conditions: dose 5-20 µM, time 26.0 hrs
[6] = test system: BV-2; assay: Cytotoxicity against mouse BV-2 cells assessed as reduction in cell viability at 10 uM by CCK8 assay; assay type: toxicity, cell-based; conditions: bv-2, 10 µM
[7] = Cytotoxicity against mouse BV-2 cells assessed as cell viability at 30 uM by CCK8 assay; assay type: toxicity, cell-based; conditions: BV-2 cells, read-out: Activity
[8] = test system: BV-2; assay: Anti-inflammatory activity against LPS-stimulated mouse BV-2 cells assessed as inhibition of LPS-induced IL-1 beta production incubated for 24 hrs in presence of LPS; assay type: functional, cell-based; conditions: dose 1-9 µM
[9] = test system: PC-12; assay: Cytotoxicity against rat PC-12 cells assessed as cell viability at 40 uM by CCK-8 assay; assay type: toxicity, cell-based; conditions: pc-12, 40 µM
[10] = test system: BV-2; assay: Anti-inflammatory activity against LPS-stimulated mouse BV-2 cells assessed as inhibition of LPS-induced IL-6 production incubated for 24 hrs in presence of LPS; assay type: functional, cell-based; conditions: dose 1-9 µM
[11] = target: Amyloid-beta precursor protein (Homo sapiens) (UniProt P05067); assay: Inhibition of self-induced Amyloid beta (1 to 42) (unknown origin) aggregation at 25 uM incubated for 24 hrs by thioflavin T-based fluorescence analysis
[12] = test system: BV-2; assay: Anti-inflammatory activity against LPS-stimulated mouse BV-2 cells assessed as inhibition of LPS-induced NO production incubated for 24 hrs in presence of LPS; assay type: functional, cell-based; conditions: dose 1-9 µM
[13] = Permeability of the compound at 100 ug/ml incubated for 18 hrs by PAMPA assay; assay type: ADME; conditions: dose 100 µg/ml, read-out: permeability
[14] = Selectivity index, ratio of IC50 for inhibition of electric eel AChE to IC50 for inhibition of equine serum BuChE
[15] = target: Acetylcholinesterase (Electrophorus electricus, UniProt O42275); assay: Inhibition of electric eel AChE using acetylthiocholine chloride as substrate by Ellman's method
[16] = target: Cholinesterase (Equus caballus, UniProt P81908); assay: Inhibition of equine serum BuChE using butyrylthiocholine chloride as substrate by Ellman's method; assay type: cell-free
[17] = test system: PC-12; assay: Neuroprotective activity against Amyloid beta(25 to 35)-induced cell injury in rat PC12 cells assessed as cell viability at 10 uM pretreated for 2 hrs followed by incubation with Abeta(25 to 35) for 24 hrs by CCK-8 assay (reference value: 41 to 58.6%); assay type: functional; conditions: time 26 hrs, read-out: Activity
[18] = Metal chelating activity assessed as compound-Cu2+ complex formation by measuring small fiber aggregates incubated for 24 hrs by transmission electron microscopy
[19] = test system: PC-12; assay: Neuroprotective activity against Amyloid beta(25 to 35)-induced cell injury in rat PC12 cells assessed as cell viability at 20 uM pretreated for 2 hrs followed by incubation with Abeta(25 to 35) for 24 hrs by CCK-8 assay (reference value: 41 to 58.6%); assay type: functional; conditions: time 26 hrs, read-out: Activity
[20] = Metal chelating activity assessed as compound-Cu2+ complex formation by measuring inhibition of Cu2+-induced amyloid beta (1 to 42) aggregation at 25 uM by thioflavin T-based fluorescence analysis
[21] = test system: PC-12; assay: Neuroprotective activity against Amyloid beta(25 to 35)-induced cell injury in rat PC12 cells assessed as cell viability at 5 uM pretreated for 2 hrs followed by incubation with Abeta(25 to 35) for 24 hrs by CCK-8 assay (reference value: 41 to 58.6%); assay type: functional; conditions: time 26 hrs, read-out: Activity
[22] = test system: BV-2; assay: Anti-inflammatory activity against LPS-stimulated mouse BV-2 cells assessed as inhibition of LPS-induced IL-1 beta production by measuring IL-beta level at 3 uM incubated for 24 hrs in presence of LPS (reference value: 221.3 pg/ml); assay type: functional
[23] = test system: BV-2; assay: Anti-inflammatory activity against LPS-stimulated mouse BV-2 cells assessed as inhibition of LPS-induced IL-6 production by measuring IL-6 level at 1 uM incubated for 24 hrs in presence of LPS (reference value: 1503.2 pg/ml); assay type: functional
[24] = test system: BV-2; assay: Anti-inflammatory activity against LPS-stimulated mouse BV-2 cells assessed as inhibition of LPS-induced IL-6 production by measuring IL-6 level at 9 uM incubated for 24 hrs in presence of LPS (reference value: 1503.2 pg/ml); assay type: functional
[25] = test system: BV-2; assay: Anti-inflammatory activity against LPS-stimulated mouse BV-2 cells assessed as inhibition of LPS-induced IL-1 beta production by measuring IL-beta level at 1 uM incubated for 24 hrs in presence of LPS (reference value: 221.3 pg/ml); assay type: functional
[26] = test system: BV-2; assay: Anti-inflammatory activity against LPS-stimulated mouse BV-2 cells assessed as inhibition of LPS-induced IL-1 beta production by measuring IL-beta level at 9 uM incubated for 24 hrs in presence of LPS (reference value: 221.3 pg/ml); assay type: functional
[27] = test system: BV-2; assay: Anti-inflammatory activity against LPS-stimulated mouse BV-2 cells assessed as inhibition of LPS-induced IL-6 production by measuring IL-6 level at 3 uM incubated for 24 hrs in presence of LPS (reference value: 1503.2 pg/ml); assay type: functional
[28] = target: Cholinesterase (Equus caballus) (UniProt P81908); assay: Reversible inhibition of equine serum BuChE assessed as enzyme activity using butyrylthiocholine chloride as substrate measured after dilution to 0.1XIC50 for 240 mins by Ellman's method; assay type: cell-free; parameters: scale not given: the % may be the effect or the level left
[29] = target: Acetylcholinesterase (Electrophorus electricus) (UniProt O42275); assay: Reversible inhibition of electric eel AChE assessed as enzyme activity using acetylthiocholine iodide as substrate measured after dilution to 0.1XIC50 for 120 mins by Ellman's method; parameters: scale not given: the % may be the effect or the level left
Sequence of Acetylcholinesterase (Electrophorus electricus) (O42275 24-633 limits assumed): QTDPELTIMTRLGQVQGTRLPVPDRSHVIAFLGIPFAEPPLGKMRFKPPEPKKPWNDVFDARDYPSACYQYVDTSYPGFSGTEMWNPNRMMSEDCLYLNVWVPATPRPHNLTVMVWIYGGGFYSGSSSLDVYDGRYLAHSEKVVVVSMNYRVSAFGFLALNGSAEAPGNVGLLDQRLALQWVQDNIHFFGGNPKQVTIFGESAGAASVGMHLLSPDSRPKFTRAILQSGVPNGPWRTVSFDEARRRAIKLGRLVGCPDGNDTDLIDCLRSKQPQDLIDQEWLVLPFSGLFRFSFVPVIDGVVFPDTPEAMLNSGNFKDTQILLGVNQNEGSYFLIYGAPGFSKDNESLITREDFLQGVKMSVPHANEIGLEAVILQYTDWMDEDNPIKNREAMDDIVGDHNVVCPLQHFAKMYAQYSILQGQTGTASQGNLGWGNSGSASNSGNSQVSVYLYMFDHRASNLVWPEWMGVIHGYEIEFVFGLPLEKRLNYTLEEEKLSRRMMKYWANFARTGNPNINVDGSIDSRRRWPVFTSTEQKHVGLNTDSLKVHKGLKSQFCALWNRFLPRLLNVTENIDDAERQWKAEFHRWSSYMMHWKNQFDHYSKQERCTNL

Sequence of Acetylcholinesterase (O42275 whole entry): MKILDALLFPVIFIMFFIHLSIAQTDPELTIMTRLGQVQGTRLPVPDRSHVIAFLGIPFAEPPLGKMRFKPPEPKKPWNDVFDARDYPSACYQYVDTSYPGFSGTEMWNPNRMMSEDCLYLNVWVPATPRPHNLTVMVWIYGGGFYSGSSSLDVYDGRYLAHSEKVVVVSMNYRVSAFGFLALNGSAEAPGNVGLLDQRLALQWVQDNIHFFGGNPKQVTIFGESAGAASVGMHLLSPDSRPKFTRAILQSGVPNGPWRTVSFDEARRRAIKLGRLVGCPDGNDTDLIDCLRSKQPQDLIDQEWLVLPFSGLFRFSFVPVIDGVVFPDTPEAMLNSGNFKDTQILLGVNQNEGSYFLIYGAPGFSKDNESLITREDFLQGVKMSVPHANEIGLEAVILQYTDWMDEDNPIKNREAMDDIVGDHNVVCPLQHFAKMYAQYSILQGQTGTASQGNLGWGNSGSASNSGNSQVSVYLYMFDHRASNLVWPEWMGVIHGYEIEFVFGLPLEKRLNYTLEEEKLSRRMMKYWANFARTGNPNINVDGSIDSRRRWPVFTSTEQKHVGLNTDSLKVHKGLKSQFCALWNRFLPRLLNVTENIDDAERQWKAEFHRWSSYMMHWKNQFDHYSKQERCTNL
Sequence of Cholinesterase (P81908 whole entry): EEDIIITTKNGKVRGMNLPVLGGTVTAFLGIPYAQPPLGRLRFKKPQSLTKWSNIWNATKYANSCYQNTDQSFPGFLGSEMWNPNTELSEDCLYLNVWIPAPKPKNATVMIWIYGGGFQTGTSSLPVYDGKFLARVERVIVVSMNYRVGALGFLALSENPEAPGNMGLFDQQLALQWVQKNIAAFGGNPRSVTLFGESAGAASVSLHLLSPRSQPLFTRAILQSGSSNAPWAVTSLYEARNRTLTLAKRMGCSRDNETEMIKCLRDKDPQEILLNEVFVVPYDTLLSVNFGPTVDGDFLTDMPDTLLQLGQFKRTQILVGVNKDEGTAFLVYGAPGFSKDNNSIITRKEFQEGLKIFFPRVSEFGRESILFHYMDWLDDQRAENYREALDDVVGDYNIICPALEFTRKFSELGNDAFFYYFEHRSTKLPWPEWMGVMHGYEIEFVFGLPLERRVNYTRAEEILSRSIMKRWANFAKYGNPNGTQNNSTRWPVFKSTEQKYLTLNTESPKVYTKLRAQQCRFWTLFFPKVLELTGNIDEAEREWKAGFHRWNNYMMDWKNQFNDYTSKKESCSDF
Sequence of Amyloid-beta precursor protein (Homo sapiens) (P05067 whole entry): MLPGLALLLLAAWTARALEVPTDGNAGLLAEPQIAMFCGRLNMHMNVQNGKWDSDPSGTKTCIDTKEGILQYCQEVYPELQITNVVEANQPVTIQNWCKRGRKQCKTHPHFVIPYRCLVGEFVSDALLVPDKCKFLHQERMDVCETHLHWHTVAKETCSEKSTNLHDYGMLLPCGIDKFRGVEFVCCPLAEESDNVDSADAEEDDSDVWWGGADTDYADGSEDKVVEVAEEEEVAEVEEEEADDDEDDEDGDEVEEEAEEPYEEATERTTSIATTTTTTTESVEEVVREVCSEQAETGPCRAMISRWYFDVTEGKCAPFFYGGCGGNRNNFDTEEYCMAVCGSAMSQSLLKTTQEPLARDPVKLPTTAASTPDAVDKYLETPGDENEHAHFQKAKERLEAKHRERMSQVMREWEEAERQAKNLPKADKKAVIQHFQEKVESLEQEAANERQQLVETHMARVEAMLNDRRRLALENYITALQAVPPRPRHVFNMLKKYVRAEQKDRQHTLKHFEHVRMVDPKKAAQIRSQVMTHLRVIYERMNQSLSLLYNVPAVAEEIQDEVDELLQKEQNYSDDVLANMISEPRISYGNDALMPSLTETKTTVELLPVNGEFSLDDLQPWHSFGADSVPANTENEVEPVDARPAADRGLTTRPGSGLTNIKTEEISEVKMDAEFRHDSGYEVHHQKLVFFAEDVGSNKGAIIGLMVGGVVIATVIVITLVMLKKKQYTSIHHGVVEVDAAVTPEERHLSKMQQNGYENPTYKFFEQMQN
Sequence of Cholinesterase (Equus caballus) (P81908 whole entry): as the sequence (P81908 whole entry) above

## O=C(/C=C/c1c(F)cccc1Br)c1ccccc1O
[1]
  inhibition at 62.5 µM: < 15%
[2]
  IC50: 4.7 µM

## O=C(/C=C/c1ccc(Br)cc1OC(F)(F)F)c1ccccc1O
[3]
  IC50: 59.3 µM
[2]
  IC50: 2.6 µM
[4]
  Ratio IC50: 22.9

## O=C(/C=C/c1c(Br)cccc1Br)c1ccccc1O
[1]
  inhibition at 62.5 µM: < 15%
[2]
  IC50: 60.3 µM

## COc1ccc(/C=C/C(=O)c2ccccc2O)cc1
[3]
  IC50: 53.2 µM
[5]
  Activity: Dose-Dependent Effect
[6]
  Activity: Non-Toxic
[7]
  viability at 30 µM: 78.9%
[8]
  Activity: Dose-Dependent Effect
[9]
  Activity: Non-Toxic
[10]
  Activity: Dose-Dependent Effect
[2]
  IC50: 1.3 µM
[11]
  inhibition: 61.1%
[12]
  Activity: Dose-Dependent Effect
[4]
  Ratio IC50: 40.9

## COc1ccc2cc(/C=C/C(=O)c3ccccc3O)ccc2c1
[1]
  inhibition at 62.5 µM: < 15%
[2]
  IC50: 78.4 µM

## CCn1cc(C(=O)O)c(=O)c2cc(F)c(N3CCNCC3)cc21 [NORFLOXACIN]
[13]
  Papp at 18 h, 100 ug/ml: 0.21 ×10⁻⁶ cm/s

## CN(C)C(=O)Oc1ccccc1C(=O)/C=C/c1ccc(F)cc1
[3]
  IC50: 31.5 µM
[14]
  Ratio IC50: 1.4
[5]
  Activity: Dose-Dependent Effect
[6]
  Activity: Non-Toxic
[8]
  Activity: Dose-Dependent Effect
[15]
  IC50: 8.7 µM
[9]
  Activity: Non-Toxic
[16]
  IC50: 6.3 µM
[10]
  Activity: Dose-Dependent Effect
[2]
  IC50: 2.7 µM
[12]
  Activity: Dose-Dependent Effect
[4]
  Ratio IC50: 11.7

## O=C(/C=C/c1cc2ccccc2c2ccccc12)c1ccccc1O
[1]
  inhibition at 62.5 µM: < 15%
[2]
  IC50: 76.8 µM

## COc1cccc(/C=C/C(=O)c2ccccc2O)c1
[3]
  IC50: 35.7 µM
[2]
  IC50: 3.4 µM
[4]
  Ratio IC50: 10.5

## O=C(/C=C/c1ccccc1F)c1ccccc1O
[1]
  inhibition at 62.5 µM: < 15%
[2]
  IC50: 12.6 µM

## CCN(CC)C(=O)Oc1ccccc1C(=O)/C=C/c1ccc(F)cc1
[3]
  IC50: 52.3 µM
[14]
  Ratio IC50: 0.59
[5]
  Activity: Dose-Dependent Effect
[6]
  Activity: Non-Toxic
[8]
  Activity: Dose-Dependent Effect
[15]
  IC50: 11.2 µM
[9]
  Activity: Non-Toxic
[16]
  IC50: 18.9 µM
[10]
  Activity: Dose-Dependent Effect
[2]
  IC50: 2.1 µM
[12]
  Activity: Dose-Dependent Effect
[4]
  Ratio IC50: 24.9

## COc1ccccc1/C=C/C(=O)c1ccccc1O
[1]
  inhibition at 62.5 µM: < 15%
[2]
  IC50: 5.9 µM

## COc1cc(/C=C/C(=O)CC(=O)/C=C/c2ccc(O)c(OC)c2)ccc1O [CURCUMIN]
[17]
  viability at 10 µM: 76.3%
[18]
  Activity: Active
[19]
  viability at 20 µM: 85.5%
[9]
  Activity: Non-Toxic
[20]
  inhibition: 53.5%
[21]
  viability at 5 µM: 62.5%

## O=C(/C=C/c1ccc(O)cc1)c1ccccc1O
[22]
  Activity: 77.6 pg/mL
[3]
  IC50: 66.1 µM
[23]
  Activity: 763.2 pg/mL
[6]
  Activity: Non-Toxic
[17]
  viability at 10 µM: 91%
[7]
  viability at 30 µM: 71.5%
[24]
  Activity: 337.5 pg/mL
[19]
  viability at 20 µM: 94.6%
[9]
  Activity: Non-Toxic
[25]
  Activity: 147.6 pg/mL
[26]
  Activity: 50.9 pg/mL
[2]
  IC50: 0.8 µM
[11]
  inhibition: 80.7%
[21]
  viability at 5 µM: 88.9%
[27]
  Activity: 489.3 pg/mL
[12]
  Activity: Dose-Dependent Effect
[4]
  Ratio IC50: 82.6

## CCN(C)C(=O)Oc1cccc([C@H](C)N(C)C)c1
[28]
  Activity: 81.2%
[29]
  Activity: 94.7%

## O=C(/C=C/c1ccc(Cl)cc1)c1ccccc1O
[3]
  IC50: 78.8 µM
[2]
  IC50: 10.3 µM
[4]
  Ratio IC50: 7.7

## COc1ccc(Br)cc1/C=C/C(=O)c1ccccc1O
[1]
  inhibition at 62.5 µM: < 15%
[2]
  IC50: 27.5 µM

## O=C(/C=C/c1ccc2ccccc2c1Br)c1ccccc1O
[1]
  inhibition at 62.5 µM: < 15%
[2]
  IC50: 2.8 µM

## O=C(/C=C/c1cccc(O)c1)c1ccccc1O
[3]
  IC50: 50.9 µM
[2]
  IC50: 1.7 µM
[4]
  Ratio IC50: 29.9
